The values below come from patent US20250179047A1, “5-[7-(3,4-DIHYDRO-1H-ISOQUINOLINE-2-CARBONYL)-1,2,3,4 TETRAHYDROISOQUINOLIN-6-YL]-1H-PYRROLE-3-CARBOXAMIDE DERIVATIVES, PHARMACEUTICAL COMPOSITIONS CONTAINING THEM AND THEIR USES AS PRO-APOPTOTIC AGENTS” (LES LABORATOIRES SERVIER, priority 2022, published 2025).

One may read the IC50 as the concentration that inhibits the measured activity by half.

One experiment concerns the target BCLXL WT (Homo sapiens (Human), UniProt Q07817). The experiment is described as follows: TR-FRET competitive binding assay, BCLXL WT. The following applies: for Ki: BCLXL WT, Ki determined from IC50, read-out: TR_FRET EKI BclxL; for TR_FRET EKI BCLxL/WT selectivty ratio: ratio Ki BCLxL / Ki BCL2 WT. Summed up: (§1)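 Terbium-labelled N-terminal Halo-fusion BCL2 or BCLXL (E. coli), 0.5 nM, competed against fluorescein-labelled PUMA peptide (2 or 20 nM) for 2 h at 23° C in 50 mM Hepes pH 7.5, 150 mM NaCl, 5% DMSO. TR-FRET 520/495 nm ratio gave IC50 by four-parameter fit; Ki derived from IC50.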
A general note: Time-resolved FRET reads energy transfer from a long-lived donor to a nearby acceptor.

Another experiment deals with KMS-12-PE Bcl-2 G101V. Nature of the experiment: In vitro cytotoxicity CellTiter-Glo 48 h, KMS-12-PE Bcl-2 G101V. Format: cell-based. Conditions: for Ratio (G101V/WT): C50 KMS-12-PE Bcl-2 G101V over C50 KMS-12-PE Bcl-2 WT; for IC50: Homo sapiens, KMS-12-PE, 48 h, CellTiter-Glo, C50 = concentration needed to reach 50% of the cellular viability. Summed up:
(§2)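 KMS-12-PE myeloma cells were lentivirally transduced with wild-type or G101V-mutant Bcl-2 and sorted by TagRFP. They were exposed to compounds as 11-point dose responses for 48 h at 37 °C, 5% CO2. Viability was read by CellTiter-Glo ATP luminescence, and C50 was the concentration giving 50% viability.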

The next experiment addresses BCL2 D103Y (Homo sapiens, UniProt P10415, D103Y). Nature of the experiment: TR-FRET competitive binding assay, BCL2 D103Y. Conditions: Ki determined from IC50, read-out: TR_FRET EKI_Bcl2 D103Y. Summed up:
as §1

For another experiment, the system named is KMS-12-PE Bcl-2 WT. The experiment is described as follows: In vitro cytotoxicity CellTiter-Glo 48 h, KMS-12-PE Bcl-2 WT. The format is cell-based. Conditions: Homo sapiens, KMS-12-PE, C50 = concentration needed to reach 50% of the cellular viability. The gist of the method: as §2
For orientation: Cellular ATP, detected with luciferase, serves as a proxy for viable cell number.

Experiment [1] relates to BCL2 G101V. The experiment is described as follows: TR-FRET competitive binding assay, BCL2 G101V. The arrangement: species or system human. The following applies: ratio Ki BCL2 G101V / Ki BCL2 WT. Summed up:
as §1

Experiment [2] concerns the target BCL2 G101V (Homo sapiens, UniProt P10415, G101V). The experiment is described as follows: TR-FRET competitive binding assay, BCL2 G101V. Conditions: BCL2 G101V; Ki determined from IC50; read-out: TR_FRET EKI_Bcl2 G101V. The gist of the method: as §1
In a further experiment the target is BCL2 WT (Homo sapiens (Human), UniProt P10415). Nature of the experiment: TR-FRET competitive binding assay, BCL2 WT. Conditions: Ki determined from IC50, read-out: TR_FRET EKI_Bcl2 WT. Summed up:
as §1

BCLXL WT, sequence (Q07817 other isoform, or with tags, fused parts or gaps): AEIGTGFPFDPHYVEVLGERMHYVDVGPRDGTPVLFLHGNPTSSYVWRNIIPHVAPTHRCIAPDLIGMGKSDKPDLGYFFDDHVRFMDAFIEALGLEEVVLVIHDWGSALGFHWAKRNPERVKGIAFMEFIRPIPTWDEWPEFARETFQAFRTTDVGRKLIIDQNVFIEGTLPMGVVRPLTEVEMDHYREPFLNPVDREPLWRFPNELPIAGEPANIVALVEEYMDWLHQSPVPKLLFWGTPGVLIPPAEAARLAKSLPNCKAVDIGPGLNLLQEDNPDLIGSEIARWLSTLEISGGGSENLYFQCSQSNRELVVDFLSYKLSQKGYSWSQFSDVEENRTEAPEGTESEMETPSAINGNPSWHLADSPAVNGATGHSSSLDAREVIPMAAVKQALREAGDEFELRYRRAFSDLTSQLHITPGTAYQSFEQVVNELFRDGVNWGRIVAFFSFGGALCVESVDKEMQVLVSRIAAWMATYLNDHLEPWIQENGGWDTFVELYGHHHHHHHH

For the molecule `Cc1c(N(C(=O)c2cc(-c3cc4c(cc3C(=O)N3Cc5ccccc5C[C@H]3C)CN(C(=O)Cc3ccc(OCCN5CCOCC5)cc3)CC4)n(C)c2C)c2ccc(O)cc2)cnn1C1CCOCC1` [Example 142, N-(4-hydroxyphenyl)-1,2-dimethyl-N-[5-methyl-1-(oxan-4-yl)pyrazol-4-yl]-5-(7-{[(3R)-3-methyl-3,4-dihydro-1H-isoquinolin-2-yl]carbonyl}-2-(2-{4-[2-(morpholin-4-yl)ethoxy]phenyl}acetyl)-3,4-dihydro-1H-isoquinolin-6-yl)pyrrole-3-carboxamide], the Ki turned out to be 8.1 nM at BCLXL WT, 0.31 nM at BCL2 D103Y, 1.3 nM at BCL2 G101V [2] and 0.13 nM on BCL2 WT. In addition, at BCLXL WT, the “TR_FRET EKI BCLxL/WT selectivty ratio” value is recorded as 62.3. For the same molecule, the “Ratio (G101V/WT)” value with KMS-12-PE Bcl-2 G101V is recorded as 8.9744. Also, the values for the IC50 in the experiment with KMS-12-PE Bcl-2 G101V and in the experiment on KMS-12-PE Bcl-2 WT were 1.4 µM and 0.156 µM, respectively. Moreover, in the experiment with BCL2 G101V [1], the “TR_FRET EKI G101V/WT selectivty ratio” value turned out to be 10.0.
For the molecule `COCCn1cc(N(C(=O)c2cc(-c3cc4c(cc3C(=O)N3Cc5ccccc5C[C@H]3C)CN(C(=O)Cc3ccc(OCCN5CCOCC5)cc3)CC4)n(C)c2C)c2ccc(O)cc2)cn1` [Example 143, N-(4-hydroxyphenyl)-N-[1-(2-methoxyethyl)pyrazol-4-yl]-1,2-dimethyl-5-(7-{[(3R)-3-methyl-3,4-dihydro-1H-isoquinolin-2-yl]carbonyl}-2-(2-{4-[2-(morpholin-4-yl)ethoxy]phenyl}acetyl)-3,4-dihydro-1H-isoquinolin-6-yl)pyrrole-3-carboxamide], the Ki on BCLXL WT was 3 nM; at BCL2 D103Y it was 0.1 nM; at BCL2 G101V [2], 0.4 nM; at BCL2 WT it was 0.04 nM. For the same molecule, the “TR_FRET EKI BCLxL/WT selectivty ratio” value on BCLXL WT stood at 83.3. In the experiment with KMS-12-PE Bcl-2 G101V, the “Ratio (G101V/WT)” value turned out to be 12.604. Besides, the results for the IC50 with KMS-12-PE Bcl-2 G101V and with KMS-12-PE Bcl-2 WT were 0.605 µM and 0.048 µM, respectively. The “TR_FRET EKI G101V/WT selectivty ratio” value with BCL2 G101V [1] was 12.2.
Take `Cc1c(C(=O)N(c2ccc(O)cc2)c2cnn(CC(C)C)c2)cc(-c2cc3c(cc2C(=O)N2Cc4ccccc4C[C@H]2C)CN(C(=O)Cc2ccc(OCCN4CCOCC4)cc2)CC3)n1C` [Example 144, N-(4-hydroxyphenyl)-1,2-dimethyl-5-(7-{[(3R)-3-methyl-3,4-dihydro-1H-isoquinolin-2-yl]carbonyl}-2-(2-{4-[2-(morpholin-4-yl)ethoxy]phenyl}acetyl)-3,4-dihydro-1H-isoquinolin-6-yl)-N-[1-(2-methylpropyl)pyrazol-4-yl]pyrrole-3-carboxamide]: the Ki was determined as 7.7 nM at BCLXL WT, 0.18 nM on BCL2 D103Y, 1.1 nM on BCL2 G101V [2] and 0.1 nM at BCL2 WT. Also, on BCLXL WT, the “TR_FRET EKI BCLxL/WT selectivty ratio” value amounted to 77.0. For the same molecule, the “Ratio (G101V/WT)” value in the experiment with KMS-12-PE Bcl-2 G101V stood at 12.531. Moreover, the values for the IC50 with KMS-12-PE Bcl-2 G101V and in the experiment with KMS-12-PE Bcl-2 WT were 0.307 µM and 0.0245 µM, respectively. In the experiment on BCL2 G101V [1], the “TR_FRET EKI G101V/WT selectivty ratio” value is given as 11.0.
`Cc1c(C(=O)N(c2ccc(O)cc2)c2cnn3c2CCCC3)cc(-c2cc3c(cc2C(=O)N2Cc4ccccc4C[C@H]2C)CN(C(=O)Cc2ccc(OCCN4CCOCC4)cc2)CC3)n1C` [Example 147, N-(4-hydroxyphenyl)-1,2-dimethyl-5-(7-{[(3R)-3-methyl-3,4-dihydro-1H-isoquinolin-2-yl]carbonyl}-2-(2-{4-[2-(morpholin-4-yl)ethoxy]phenyl}acetyl)-3,4-dihydro-1H-isoquinolin-6-yl)-N-{4H,5H,6H,7H-pyrazolo[1,5-a]pyridin-3-yl}pyrrole-3-carboxamide]: the Ki was 1 nM on BCLXL WT, 0.14 nM on BCL2 D103Y, 0.3 nM on BCL2 G101V [2] and 0.06 nM at BCL2 WT. For the same molecule, the “TR_FRET EKI BCLxL/WT selectivty ratio” value at BCLXL WT is recorded as 17.2. Moreover, in the experiment on KMS-12-PE Bcl-2 G101V, the “Ratio (G101V/WT)” value is on record as 6.9408. Moreover, the IC50 in the experiment with KMS-12-PE Bcl-2 G101V came out at 0.211 µM; in the experiment on KMS-12-PE Bcl-2 WT, 0.0304 µM. Further, in the experiment with BCL2 G101V [1], the “TR_FRET EKI G101V/WT selectivty ratio” value stood at 5.9.
`Cc1c(N(C(=O)c2cc(-c3cc4c(cc3C(=O)N3Cc5ccccc5C[C@H]3CN3CCCCC3)CN(C(=O)Cc3ccc(COCC5CCOCC5)cc3)CC4)n(C)c2C)c2ccc(O)cc2)cc(C#N)n1C` [Example 149, N-(5-cyano-1,2-dimethyl-1H-pyrrol-3-yl)-N-(4-hydroxyphenyl)-1,2-dimethyl-5-{2-[2-(4-{[(oxan-4-yl)methoxy]methyl}phenyl)acetyl]-7-[(3S)-3-[(piperidin-1-yl)methyl]-1,2,3,4-tetrahydroisoquinoline-2-carbonyl]-1,2,3,4-tetrahydroisoquinolin-6-yl}-1H-pyrrole-3-carboxamide]: the Ki worked out at 1.9 nM on BCLXL WT, 0.23 nM at BCL2 D103Y, 1.1 nM on BCL2 G101V [2] and 0.1 nM on BCL2 WT. The “TR_FRET EKI BCLxL/WT selectivty ratio” value at BCLXL WT is recorded as 19.4. Also, the “Ratio (G101V/WT)” value in the experiment with KMS-12-PE Bcl-2 G101V is given as 10.921. Also, the IC50 in the experiment with KMS-12-PE Bcl-2 G101V was 0.261 µM; with KMS-12-PE Bcl-2 WT, 0.0239 µM. In the experiment with BCL2 G101V [1], the “TR_FRET EKI G101V/WT selectivty ratio” value was determined as 11.2.
On to `Cc1c(N(C(=O)c2cc(-c3cc4c(cc3C(=O)N3Cc5ccccc5C[C@H]3CN3CCCCC3)CN(C(=O)Cc3ccc(OCCN5CCO[C@@H](C)C5)cc3)CC4)n(C)c2C)c2ccc(O)cc2)cc(C#N)n1C` [Example 150, N-(5-cyano-1,2-dimethyl-1H-pyrrol-3-yl)-N-(4-hydroxyphenyl)-1,2-dimethyl-5-[2-(2-{4-[2-((2S)-2-methylmorpholin-4-yl)ethoxy]phenyl}acetyl)-7-[(3S)-3-[(piperidin-1-yl)methyl]-1,2,3,4-tetrahydroisoquinoline-2-carbonyl]-1,2,3,4-tetrahydroisoquinolin-6-yl]-1H-pyrrole-3-carboxamide], for which the Ki on BCLXL WT came out at 2.6 nM; on BCL2 D103Y, 0.08 nM; on BCL2 G101V [2], 0.2 nM; at BCL2 WT it was 0.04 nM. The “TR_FRET EKI BCLxL/WT selectivty ratio” value at BCLXL WT worked out at 70.3. Further, the “Ratio (G101V/WT)” value in the experiment with KMS-12-PE Bcl-2 G101V is listed as 5.2636. Besides, the IC50 in the experiment with KMS-12-PE Bcl-2 G101V is 0.0579 µM; with KMS-12-PE Bcl-2 WT, 0.011 µM. The “TR_FRET EKI G101V/WT selectivty ratio” value with BCL2 G101V [1] was 6.2.
With `Cc1c(N(C(=O)c2cc(-c3cc4c(cc3C(=O)N3Cc5ccccc5C[C@H]3CN3CCCCC3)CN(C(=O)Cc3ccc(OCCN5CCO[C@H](C)C5)cc3)CC4)n(C)c2C)c2ccc(O)cc2)cc(C#N)n1C` [Example 151, N-(5-cyano-1,2-dimethyl-1H-pyrrol-3-yl)-N-(4-hydroxyphenyl)-1,2-dimethyl-5-[2-(2-{4-[2-((2R)-2-methylmorpholin-4-yl)ethoxy]phenyl}acetyl)-7-[(3S)-3-[(piperidin-1-yl)methyl]-1,2,3,4-tetrahydroisoquinoline-2-carbonyl]-1,2,3,4-tetrahydroisoquinolin-6-yl]-1H-pyrrole-3-carboxamide], the Ki is 2.7 nM on BCLXL WT, 0.1 nM on BCL2 D103Y, 0.3 nM at BCL2 G101V [2] and 0.05 nM at BCL2 WT. In addition, the “TR_FRET EKI BCLxL/WT selectivty ratio” value on BCLXL WT was determined as 57.4. For the same molecule, in the experiment with KMS-12-PE Bcl-2 G101V, the “Ratio (G101V/WT)” value is reported as 6.0476. Besides, the IC50 with KMS-12-PE Bcl-2 G101V stood at 0.0635 µM; with KMS-12-PE Bcl-2 WT, 0.0105 µM. Further, in the experiment with BCL2 G101V [1], the “TR_FRET EKI G101V/WT selectivty ratio” value stood at 6.4.
As to `Cc1c(N(C(=O)c2cc(-c3cc4c(cc3C(=O)N3Cc5ccccc5C[C@H]3CN3CCC[C@H](C)C3)CN(C(=O)Cc3ccc(OCCN5CCOCC5)cc3)CC4)n(C)c2C)c2ccc(O)cc2)cc(C#N)n1C` [Example 153, N-(5-cyano-1,2-dimethyl-pyrrol-3-yl)-N-(4-hydroxyphenyl)-1,2-dimethyl-5-[7-[(3S)-3-[[(3S)-3-methyl-1-piperidyl]methyl]-3,4-dihydro-1H-isoquinoline-2-carbonyl]-2-[2-[4-(2-morpholinoethoxy)phenyl]acetyl]-3,4-dihydro-1H-isoquinolin-6-yl]pyrrole-3-carboxamide], the Ki was 5.2 nM at BCLXL WT, 0.38 nM at BCL2 D103Y, 0.4 nM on BCL2 G101V [2] and 0.13 nM at BCL2 WT. The “TR_FRET EKI BCLxL/WT selectivty ratio” value at BCLXL WT was 41.6. Also, the “Ratio (G101V/WT)” value in the experiment with KMS-12-PE Bcl-2 G101V is on record as 5.3741. Besides, the IC50 in the experiment on KMS-12-PE Bcl-2 G101V was found to be 0.051 µM; with KMS-12-PE Bcl-2 WT, 0.0095 µM. Moreover, the “TR_FRET EKI G101V/WT selectivty ratio” value in the experiment on BCL2 G101V [1] is on record as 3.5.
